In general, AC50 refers to the concentration at which the activity in the assay is half-maximal.

Results on 18 molecules are retold here after ChEMBL document CHEMBL5291721, “A preclinical secondary pharmacology resource illuminates target-adverse drug reaction associations of marketed drugs” (Nat Commun, 2023).

The structures appear in SMILES notation. Bounds are passed on as bounds.

Targets include Melanocortin receptor 4 (Homo sapiens, UniProt P32245); Mu-type opioid receptor (Homo sapiens, UniProt P35372); Vasopressin V1a receptor (Homo sapiens, UniProt P37288).
For test [1], the target named is T1, Cannabinoid receptor 1 (Homo sapiens, UniProt P21554).
T1 sequence (P21554 whole entry): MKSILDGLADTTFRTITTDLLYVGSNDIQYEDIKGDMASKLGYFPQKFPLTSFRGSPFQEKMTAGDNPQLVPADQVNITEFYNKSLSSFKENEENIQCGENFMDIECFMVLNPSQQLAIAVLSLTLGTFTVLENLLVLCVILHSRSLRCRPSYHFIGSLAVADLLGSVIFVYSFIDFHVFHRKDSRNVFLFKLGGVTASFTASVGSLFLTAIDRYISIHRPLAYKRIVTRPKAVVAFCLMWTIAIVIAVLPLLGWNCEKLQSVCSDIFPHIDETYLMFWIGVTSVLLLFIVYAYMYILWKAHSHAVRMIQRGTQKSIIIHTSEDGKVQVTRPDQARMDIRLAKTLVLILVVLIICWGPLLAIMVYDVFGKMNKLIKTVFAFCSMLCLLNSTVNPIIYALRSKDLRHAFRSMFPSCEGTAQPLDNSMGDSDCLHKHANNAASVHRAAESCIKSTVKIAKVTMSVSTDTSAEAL
For test [2], the target named is T2, Alpha-1A adrenergic receptor (Homo sapiens, UniProt P35348).
T2 sequence (P35348 whole entry): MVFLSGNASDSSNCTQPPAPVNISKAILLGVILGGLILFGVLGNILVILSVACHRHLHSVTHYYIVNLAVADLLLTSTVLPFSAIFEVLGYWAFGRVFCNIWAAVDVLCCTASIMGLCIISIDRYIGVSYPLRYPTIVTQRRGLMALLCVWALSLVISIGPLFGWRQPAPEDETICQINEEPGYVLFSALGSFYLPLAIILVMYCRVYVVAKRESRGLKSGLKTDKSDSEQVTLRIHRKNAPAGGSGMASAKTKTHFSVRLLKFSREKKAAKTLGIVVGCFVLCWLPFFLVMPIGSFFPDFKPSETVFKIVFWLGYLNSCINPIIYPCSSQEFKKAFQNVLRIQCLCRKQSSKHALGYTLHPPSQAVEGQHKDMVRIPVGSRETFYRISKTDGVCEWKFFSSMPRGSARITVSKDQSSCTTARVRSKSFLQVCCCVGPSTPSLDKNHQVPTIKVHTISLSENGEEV

In the next test the target is T3, Glucocorticoid receptor (Homo sapiens, UniProt P04150).
T3 sequence (P04150 whole entry): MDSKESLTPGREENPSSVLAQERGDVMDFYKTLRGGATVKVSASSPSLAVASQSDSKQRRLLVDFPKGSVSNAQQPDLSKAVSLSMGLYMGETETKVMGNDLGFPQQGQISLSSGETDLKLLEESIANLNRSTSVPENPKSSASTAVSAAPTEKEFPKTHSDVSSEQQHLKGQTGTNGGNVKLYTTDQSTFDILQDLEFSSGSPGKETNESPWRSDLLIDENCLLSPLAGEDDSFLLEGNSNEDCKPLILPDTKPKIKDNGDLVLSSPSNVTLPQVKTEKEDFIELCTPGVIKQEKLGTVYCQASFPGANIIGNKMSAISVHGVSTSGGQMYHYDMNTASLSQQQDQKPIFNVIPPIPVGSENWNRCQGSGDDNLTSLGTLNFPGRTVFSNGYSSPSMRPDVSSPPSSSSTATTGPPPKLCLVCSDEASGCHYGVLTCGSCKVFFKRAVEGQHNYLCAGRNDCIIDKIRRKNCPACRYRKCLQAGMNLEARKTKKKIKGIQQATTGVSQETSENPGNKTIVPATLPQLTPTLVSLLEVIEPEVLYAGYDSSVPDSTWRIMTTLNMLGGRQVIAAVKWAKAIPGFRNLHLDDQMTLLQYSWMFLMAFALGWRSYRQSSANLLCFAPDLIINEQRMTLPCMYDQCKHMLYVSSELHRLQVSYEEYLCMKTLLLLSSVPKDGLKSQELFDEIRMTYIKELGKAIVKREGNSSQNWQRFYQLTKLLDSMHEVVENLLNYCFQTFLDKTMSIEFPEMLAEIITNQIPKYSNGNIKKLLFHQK

Test [3] addresses Voltage-dependent L-type calcium channel subunit alpha-1C (Rattus norvegicus, UniProt P22002). The format is functional.
For test [4], the target named is T4, Muscarinic acetylcholine receptor M2 (Homo sapiens, UniProt P08172).
T4 sequence (P08172 whole entry): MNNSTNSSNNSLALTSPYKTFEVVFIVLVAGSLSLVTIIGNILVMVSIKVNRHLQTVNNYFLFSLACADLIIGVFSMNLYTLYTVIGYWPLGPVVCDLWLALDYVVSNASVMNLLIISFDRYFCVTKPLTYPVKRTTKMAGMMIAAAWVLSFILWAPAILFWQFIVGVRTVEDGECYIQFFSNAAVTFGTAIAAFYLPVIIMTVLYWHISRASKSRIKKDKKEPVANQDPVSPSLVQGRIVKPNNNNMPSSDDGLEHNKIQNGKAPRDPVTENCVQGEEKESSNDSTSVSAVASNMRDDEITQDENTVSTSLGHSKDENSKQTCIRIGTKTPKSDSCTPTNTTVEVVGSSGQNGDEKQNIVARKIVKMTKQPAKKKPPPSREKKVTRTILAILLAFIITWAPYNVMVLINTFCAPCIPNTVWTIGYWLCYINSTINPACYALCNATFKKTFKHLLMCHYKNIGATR
The format is functional, cell-based.

The next test concerns the target T5, Endothelin-1 receptor (Homo sapiens, UniProt P25101).
T5 sequence (P25101 whole entry): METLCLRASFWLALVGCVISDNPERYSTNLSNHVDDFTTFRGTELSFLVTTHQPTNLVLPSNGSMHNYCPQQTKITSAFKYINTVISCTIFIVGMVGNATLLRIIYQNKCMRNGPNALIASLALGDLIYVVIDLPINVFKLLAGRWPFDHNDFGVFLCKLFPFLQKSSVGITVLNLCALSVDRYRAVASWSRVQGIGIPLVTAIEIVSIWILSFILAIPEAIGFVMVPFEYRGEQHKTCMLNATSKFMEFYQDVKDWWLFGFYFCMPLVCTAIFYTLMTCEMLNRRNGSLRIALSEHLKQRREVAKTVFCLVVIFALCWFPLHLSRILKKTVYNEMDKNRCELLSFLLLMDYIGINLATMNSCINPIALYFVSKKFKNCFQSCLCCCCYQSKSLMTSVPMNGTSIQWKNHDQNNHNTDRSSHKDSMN

For test [5], the target named is T1, Cannabinoid receptor 1. It counts as functional, cell-based.
Test [6] has as its target 5-hydroxytryptamine receptor 2A (Homo sapiens, UniProt P28223). The format is functional, cell-based.
Further: assay procedure not described here.

Chain of Vasopressin V1a receptor (P37288 whole entry): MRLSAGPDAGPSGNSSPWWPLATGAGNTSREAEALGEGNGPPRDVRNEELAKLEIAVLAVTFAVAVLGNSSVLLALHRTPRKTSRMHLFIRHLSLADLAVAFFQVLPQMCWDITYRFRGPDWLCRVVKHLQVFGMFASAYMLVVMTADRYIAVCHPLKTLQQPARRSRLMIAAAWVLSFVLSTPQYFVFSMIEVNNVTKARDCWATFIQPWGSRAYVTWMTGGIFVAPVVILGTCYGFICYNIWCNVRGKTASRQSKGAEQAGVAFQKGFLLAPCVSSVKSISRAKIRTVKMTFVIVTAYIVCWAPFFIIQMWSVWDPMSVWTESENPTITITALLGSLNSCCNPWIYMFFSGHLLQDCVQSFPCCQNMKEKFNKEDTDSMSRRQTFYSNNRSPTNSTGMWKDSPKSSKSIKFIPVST
Chain of Melanocortin receptor 4 (P32245 whole entry): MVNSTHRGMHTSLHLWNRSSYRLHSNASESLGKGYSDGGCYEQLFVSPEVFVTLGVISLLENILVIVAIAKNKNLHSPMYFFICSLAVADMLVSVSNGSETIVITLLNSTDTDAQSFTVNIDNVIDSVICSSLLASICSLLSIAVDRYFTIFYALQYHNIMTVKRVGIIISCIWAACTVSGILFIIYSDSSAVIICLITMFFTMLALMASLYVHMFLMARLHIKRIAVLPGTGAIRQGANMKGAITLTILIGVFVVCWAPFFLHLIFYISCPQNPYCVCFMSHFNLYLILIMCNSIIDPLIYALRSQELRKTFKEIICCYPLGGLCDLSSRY
Chain of Voltage-dependent L-type calcium channel subunit alpha-1C (P22002 whole entry): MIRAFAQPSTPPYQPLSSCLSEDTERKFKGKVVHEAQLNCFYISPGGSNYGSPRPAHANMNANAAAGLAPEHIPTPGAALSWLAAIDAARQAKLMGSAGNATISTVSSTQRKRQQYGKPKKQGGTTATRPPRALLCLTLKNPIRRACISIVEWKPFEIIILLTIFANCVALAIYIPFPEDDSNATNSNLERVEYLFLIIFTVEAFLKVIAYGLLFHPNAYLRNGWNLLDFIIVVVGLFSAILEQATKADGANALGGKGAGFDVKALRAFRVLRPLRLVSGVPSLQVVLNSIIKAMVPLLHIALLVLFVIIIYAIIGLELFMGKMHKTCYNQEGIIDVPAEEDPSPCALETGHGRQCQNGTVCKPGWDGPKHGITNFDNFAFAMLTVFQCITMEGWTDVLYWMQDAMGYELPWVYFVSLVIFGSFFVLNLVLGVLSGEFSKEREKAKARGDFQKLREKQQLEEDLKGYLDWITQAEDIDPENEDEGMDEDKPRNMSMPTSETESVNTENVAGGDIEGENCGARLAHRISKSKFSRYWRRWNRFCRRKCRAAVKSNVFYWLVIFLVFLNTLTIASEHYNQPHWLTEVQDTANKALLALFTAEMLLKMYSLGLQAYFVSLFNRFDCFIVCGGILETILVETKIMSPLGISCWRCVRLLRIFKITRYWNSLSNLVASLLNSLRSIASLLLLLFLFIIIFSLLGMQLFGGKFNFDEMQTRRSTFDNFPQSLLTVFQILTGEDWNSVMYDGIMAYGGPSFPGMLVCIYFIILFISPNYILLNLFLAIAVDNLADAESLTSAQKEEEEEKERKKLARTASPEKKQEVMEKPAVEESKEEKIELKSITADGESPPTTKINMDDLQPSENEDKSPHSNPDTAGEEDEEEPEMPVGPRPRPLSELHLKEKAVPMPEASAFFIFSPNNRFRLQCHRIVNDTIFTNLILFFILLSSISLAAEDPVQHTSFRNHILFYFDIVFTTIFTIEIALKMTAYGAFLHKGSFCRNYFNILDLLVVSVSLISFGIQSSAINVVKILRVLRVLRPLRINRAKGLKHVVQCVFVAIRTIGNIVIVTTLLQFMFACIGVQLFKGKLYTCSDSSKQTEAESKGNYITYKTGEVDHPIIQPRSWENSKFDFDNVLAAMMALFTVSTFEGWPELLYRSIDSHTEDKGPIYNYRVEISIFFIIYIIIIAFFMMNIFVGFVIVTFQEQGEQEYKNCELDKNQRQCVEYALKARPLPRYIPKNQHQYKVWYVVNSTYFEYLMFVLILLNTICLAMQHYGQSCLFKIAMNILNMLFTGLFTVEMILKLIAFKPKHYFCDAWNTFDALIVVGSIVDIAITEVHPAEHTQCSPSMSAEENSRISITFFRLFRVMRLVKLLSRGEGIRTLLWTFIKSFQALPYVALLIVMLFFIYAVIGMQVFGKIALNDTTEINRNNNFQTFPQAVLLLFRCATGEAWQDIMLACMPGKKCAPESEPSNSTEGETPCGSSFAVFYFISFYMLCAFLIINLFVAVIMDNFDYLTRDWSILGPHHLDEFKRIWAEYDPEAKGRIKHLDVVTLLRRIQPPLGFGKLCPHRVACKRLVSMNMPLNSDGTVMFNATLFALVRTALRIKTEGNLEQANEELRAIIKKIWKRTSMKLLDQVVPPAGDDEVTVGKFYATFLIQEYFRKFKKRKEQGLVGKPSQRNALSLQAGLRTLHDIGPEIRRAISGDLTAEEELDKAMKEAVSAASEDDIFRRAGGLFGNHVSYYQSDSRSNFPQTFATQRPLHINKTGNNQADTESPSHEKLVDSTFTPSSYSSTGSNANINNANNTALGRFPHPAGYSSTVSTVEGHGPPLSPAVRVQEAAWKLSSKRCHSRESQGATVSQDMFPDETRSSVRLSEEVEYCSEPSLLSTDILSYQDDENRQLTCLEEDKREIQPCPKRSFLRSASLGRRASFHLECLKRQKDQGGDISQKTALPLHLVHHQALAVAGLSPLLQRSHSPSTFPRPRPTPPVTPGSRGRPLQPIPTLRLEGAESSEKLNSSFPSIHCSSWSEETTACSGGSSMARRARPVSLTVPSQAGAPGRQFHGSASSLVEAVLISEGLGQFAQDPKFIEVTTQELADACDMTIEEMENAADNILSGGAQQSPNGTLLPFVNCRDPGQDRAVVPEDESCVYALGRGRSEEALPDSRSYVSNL
Chain of 5-hydroxytryptamine receptor 2A (P28223 whole entry): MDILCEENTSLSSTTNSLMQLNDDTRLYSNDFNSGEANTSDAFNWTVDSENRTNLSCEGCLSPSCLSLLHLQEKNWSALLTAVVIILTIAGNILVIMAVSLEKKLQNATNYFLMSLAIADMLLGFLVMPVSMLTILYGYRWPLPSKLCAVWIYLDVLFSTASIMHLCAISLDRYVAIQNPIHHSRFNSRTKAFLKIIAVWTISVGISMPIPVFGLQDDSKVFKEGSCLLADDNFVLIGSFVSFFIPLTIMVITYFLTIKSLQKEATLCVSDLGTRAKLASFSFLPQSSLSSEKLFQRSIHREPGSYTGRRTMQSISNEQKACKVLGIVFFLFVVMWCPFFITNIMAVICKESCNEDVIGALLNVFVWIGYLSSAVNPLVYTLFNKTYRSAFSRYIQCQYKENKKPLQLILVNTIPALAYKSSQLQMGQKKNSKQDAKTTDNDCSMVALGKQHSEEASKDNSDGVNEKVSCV
Chain of Mu-type opioid receptor (P35372 whole entry): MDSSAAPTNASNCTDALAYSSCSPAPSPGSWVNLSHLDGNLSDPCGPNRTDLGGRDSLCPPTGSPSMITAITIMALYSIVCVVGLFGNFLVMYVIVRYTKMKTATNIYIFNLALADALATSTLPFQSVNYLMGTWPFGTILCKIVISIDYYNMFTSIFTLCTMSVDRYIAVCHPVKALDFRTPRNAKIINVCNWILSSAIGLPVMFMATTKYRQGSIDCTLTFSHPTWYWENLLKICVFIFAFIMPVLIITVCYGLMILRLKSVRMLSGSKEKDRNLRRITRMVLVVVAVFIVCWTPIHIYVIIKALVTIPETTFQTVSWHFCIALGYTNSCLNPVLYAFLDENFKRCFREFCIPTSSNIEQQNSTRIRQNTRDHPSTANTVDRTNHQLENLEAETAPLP

Regarding `C[C@]12CC[C@H](O)CC1=CC[C@@H]1[C@@H]2CC[C@]2(C)C(c3cccnc3)=CC[C@@H]12` [ABIRATERONE], the AC50 at Cannabinoid receptor 1 [1] was > 10 µM; in [2], > 10 µM; on Melanocortin receptor 4, > 30 µM; at Glucocorticoid receptor, > 30 µM; in test [3], > 10 µM; in test [4], > 10 µM. In addition, the concentration at half-maximal activity (AC50) at Mu-type opioid receptor and on Vasopressin V1a receptor was > 30 µM each time.
As for `CN(C)C(=O)Oc1cc(OC(=O)N(C)C)cc(C(O)CNC(C)(C)C)c1` (configuration not stated) [BAMBUTEROL], the AC50 at Glucocorticoid receptor, on Endothelin-1 receptor and at Vasopressin V1a receptor was > 30 µM each time.
With `C[C@H]1C[C@H]2[C@@H]3CCC4=CC(=O)C=C[C@]4(C)[C@@]3(Cl)[C@@H](O)C[C@]2(C)[C@@]1(O)C(=O)CO` [BECLOMETHASONE], the AC50 is > 10 µM on Cannabinoid receptor 1 [1]; > 30 µM at Melanocortin receptor 4; > 10 µM in [3]; > 30 µM at Mu-type opioid receptor; > 30 µM on Endothelin-1 receptor; > 10 µM at Vasopressin V1a receptor.
As to `NS(=O)(=O)c1cc(C2(O)NC(=O)c3ccccc32)ccc1Cl` (configuration not stated) [CHLORTHALIDONE], the concentration at half-maximal activity (AC50) (on Cannabinoid receptor 1 [1]; in [2]; on Melanocortin receptor 4; at Glucocorticoid receptor; in [3]; in [4]) was > 10 µM in each case. On Mu-type opioid receptor, the AC50 was > 30 µM.
For the molecule `C[C@@H]1CCC[C@H](C)N1NC(=O)c1ccc(Cl)c(S(N)(=O)=O)c1` [CLOPAMIDE], the AC50 (at Cannabinoid receptor 1 [5]; on Glucocorticoid receptor; in test [6]; in test [3]; in test [4]; on Endothelin-1 receptor) was > 30 µM each time. For the same molecule, the concentration at half-maximal activity (AC50) on Vasopressin V1a receptor was > 30 µM.
Take `O=c1oc2ccccc2c(O)c1Cc1c(O)c2ccccc2oc1=O` [DICUMAROL]: the concentration at half-maximal activity (AC50) on Cannabinoid receptor 1 [1] is > 10 µM; in [2] it was > 10 µM; at Melanocortin receptor 4, > 10 µM; in test [3] it was > 10 µM; in test [4], > 10 µM; on Mu-type opioid receptor, > 30 µM.
Turning to `CCn1cc(C(=O)O)c(=O)c2cc(F)c(N3CCNCC3)nc21` [ENOXACIN], the AC50 at Cannabinoid receptor 1 [1] is > 10 µM; in test [2], > 10 µM; on Melanocortin receptor 4, > 30 µM; in [3], > 10 µM; in test [4], > 10 µM; on Mu-type opioid receptor, > 10 µM. The figures for the concentration at half-maximal activity (AC50) on Endothelin-1 receptor and on Vasopressin V1a receptor were 11.3 µM and > 10 µM, respectively.
Turning to `O=C(O)CSCC(=O)NC1CCSC1=O` (configuration not stated) [ERDOSTEINE], the half-maximal activity concentration (AC50) (at Cannabinoid receptor 1 [5]; in test [6]; in test [3]; in test [4]; on Endothelin-1 receptor; on Vasopressin V1a receptor) was > 30 µM in each case.
As to `COc1cccc(N(C)C(=S)Oc2ccc3c(c2)CCCC3)n1` [LIRANAFTATE], the AC50 was > 30 µM at Cannabinoid receptor 1 [5]; 7.4 µM in [6]; > 30 µM in test [3]; > 30 µM in test [4]; > 30 µM on Endothelin-1 receptor; > 30 µM at Vasopressin V1a receptor.
On to `C#C[C@]1(O)CC[C@H]2[C@@H]3CCc4cc(OC)ccc4[C@H]3CC[C@@]21C` [MESTRANOL], for which the AC50 on Cannabinoid receptor 1 [1] is > 10 µM; in test [2], > 30 µM; on Melanocortin receptor 4, > 10 µM; at Glucocorticoid receptor, 0.516 µM; in [3], > 10 µM; in test [4], > 10 µM. In addition, the AC50 on Mu-type opioid receptor was > 30 µM.
For `N=C(N)c1ccc2cc(OC(=O)c3ccc(N=C(N)N)cc3)ccc2c1` [NAFAMOSTAT], the AC50 on Cannabinoid receptor 1 [5] was > 30 µM; in [6], > 30 µM; in test [3], > 30 µM; in [4], 12 µM; on Endothelin-1 receptor, > 30 µM; at Vasopressin V1a receptor, > 30 µM.
Regarding `CNC(=O)Oc1ccc2c(c1)[C@]1(C)CCN(C)[C@@H]1N2C` [PHYSOSTIGMINE], the half-maximal activity concentration (AC50) (at Cannabinoid receptor 1 [5]; on Glucocorticoid receptor; in test [3]; in [4]; at Endothelin-1 receptor; on Vasopressin V1a receptor) was > 30 µM each time.
Consider `O=C(O)c1cc(O)c2c3nc4ccccc4oc-3cc(=O)c2n1` [PIRENOXINE], for which the AC50 at Cannabinoid receptor 1 [5] was > 30 µM; on Glucocorticoid receptor, > 30 µM; in [6], > 30 µM; in test [3], 0.72 µM; in [4] it was > 30 µM; at Endothelin-1 receptor, > 30 µM. The half-maximal activity concentration (AC50) at Vasopressin V1a receptor is > 30 µM.
On to `NS(=O)(=O)c1cc(C(=O)O)cc(N2CCCC2)c1Oc1ccccc1` [PIRETANIDE], for which the half-maximal activity concentration (AC50) (at Cannabinoid receptor 1 [5]; at Glucocorticoid receptor; in test [6]; in test [3]; in test [4]; on Endothelin-1 receptor) was > 30 µM each time. On Vasopressin V1a receptor, the AC50 was > 30 µM.
As to `CC(C)=CCOc1ccc(/C=C/C(=O)c2ccc(OCC=C(C)C)cc2OCC(=O)O)cc1` [SOFALCONE], the half-maximal activity concentration (AC50) (at Cannabinoid receptor 1 [5]; at Glucocorticoid receptor; in test [6]; in test [3]; in [4]; at Endothelin-1 receptor) was > 30 µM throughout. In addition, at Vasopressin V1a receptor, the AC50 is > 30 µM.
For the molecule `O=C(CCCN1CCC2(CC1)C(=O)NCN2c1ccccc1)c1ccc(F)cc1` [SPIPERONE], the AC50 at Cannabinoid receptor 1 [5] is > 30 µM; in test [2] it was 0.31 µM; on Glucocorticoid receptor, > 30 µM; on Endothelin-1 receptor, > 30 µM; at Vasopressin V1a receptor it was > 30 µM.
For the molecule `CCSc1ccc2c(c1)N(CCCN1CCN(C)CC1)c1ccccc1S2` [THIETHYLPERAZINE], the results for the AC50 in test [6] and in test [4] were 1.6 µM and > 10 µM, respectively.
`CN(C)c1cc(NC(=O)CNC(C)(C)C)c(O)c2c1C[C@H]1C[C@H]3[C@H](N(C)C)C(O)=C(C(N)=O)C(=O)[C@@]3(O)C(O)=C1C2=O` [TIGECYCLINE]: the concentration at half-maximal activity (AC50) (on Cannabinoid receptor 1 [1]; in test [2]; at Melanocortin receptor 4; on Glucocorticoid receptor; in test [6]; in test [3]) was > 30 µM each time. Besides, the AC50 (in [4]; on Vasopressin V1a receptor) was > 30 µM throughout.
